Assay results from publication PMC7714403 (JCI Insight, 2020).
Where two headings read alike, the source gives them in different places.

What was measured:
Experiment in all cases: KiNativ, MOLM13 live cells
Assay type in all cases: cell-based
MAP3K5 = MAP3K5 (Homo sapiens, UniProt Q99683); settings: MOLM-13; 100 nM, 2 hours; Lys2; read-out: Inhibition vs DMSO
Method: (§1) Samples were analyzed by KiNativ in situ kinase profiling by ActivX Biosciences.

NEK4 = NEK4 (Homo sapiens, UniProt P51957); settings: MOLM-13; 100 nM, 2 hours; Lys2; read-out: Inhibition vs DMSO
Method: as §1

MST3 = MST3 (Homo sapiens, UniProt Q9Y6E0); settings: 100 nM, 2 hours; Lys2
Method: as §1

PRPK = PRPK (Homo sapiens, UniProt Q96S44); settings: MOLM-13; 100 nM, 2 hours; ATP Loop; read-out: Inhibition vs DMSO
Method: as §1

AurA = molecular target: T1, AurA (Homo sapiens, UniProt O14965); settings: MOLM-13, 2 h, 100 nM
T1 sequence (O14965 1-403): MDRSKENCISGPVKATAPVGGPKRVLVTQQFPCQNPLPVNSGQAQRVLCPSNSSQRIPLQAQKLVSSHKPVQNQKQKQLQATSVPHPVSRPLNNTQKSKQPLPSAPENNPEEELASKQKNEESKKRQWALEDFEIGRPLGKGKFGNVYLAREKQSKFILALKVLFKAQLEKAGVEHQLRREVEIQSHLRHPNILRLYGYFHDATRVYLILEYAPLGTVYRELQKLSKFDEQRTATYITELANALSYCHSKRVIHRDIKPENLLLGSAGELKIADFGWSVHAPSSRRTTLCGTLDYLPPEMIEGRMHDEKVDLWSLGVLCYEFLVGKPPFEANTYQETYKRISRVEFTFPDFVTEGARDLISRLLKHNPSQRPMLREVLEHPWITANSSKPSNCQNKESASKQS
Method: as §1

GSK3A = GSK3A (Homo sapiens, UniProt P49840); settings: MOLM-13; 100 nM, 2 hours; Lys2; read-out: Inhibition vs DMSO
Method: as §1

PKN1 = PKN1 (Homo sapiens, UniProt Q16512); settings: MOLM-13; 100 nM, 2 hours; Lys2; read-out: Inhibition vs DMSO
Method: as §1

MASTL = molecular target: T2, MASTL (Homo sapiens, UniProt Q96GX5); settings: 100 nM, 2 hours
T2 sequence (Q96GX5 1-879): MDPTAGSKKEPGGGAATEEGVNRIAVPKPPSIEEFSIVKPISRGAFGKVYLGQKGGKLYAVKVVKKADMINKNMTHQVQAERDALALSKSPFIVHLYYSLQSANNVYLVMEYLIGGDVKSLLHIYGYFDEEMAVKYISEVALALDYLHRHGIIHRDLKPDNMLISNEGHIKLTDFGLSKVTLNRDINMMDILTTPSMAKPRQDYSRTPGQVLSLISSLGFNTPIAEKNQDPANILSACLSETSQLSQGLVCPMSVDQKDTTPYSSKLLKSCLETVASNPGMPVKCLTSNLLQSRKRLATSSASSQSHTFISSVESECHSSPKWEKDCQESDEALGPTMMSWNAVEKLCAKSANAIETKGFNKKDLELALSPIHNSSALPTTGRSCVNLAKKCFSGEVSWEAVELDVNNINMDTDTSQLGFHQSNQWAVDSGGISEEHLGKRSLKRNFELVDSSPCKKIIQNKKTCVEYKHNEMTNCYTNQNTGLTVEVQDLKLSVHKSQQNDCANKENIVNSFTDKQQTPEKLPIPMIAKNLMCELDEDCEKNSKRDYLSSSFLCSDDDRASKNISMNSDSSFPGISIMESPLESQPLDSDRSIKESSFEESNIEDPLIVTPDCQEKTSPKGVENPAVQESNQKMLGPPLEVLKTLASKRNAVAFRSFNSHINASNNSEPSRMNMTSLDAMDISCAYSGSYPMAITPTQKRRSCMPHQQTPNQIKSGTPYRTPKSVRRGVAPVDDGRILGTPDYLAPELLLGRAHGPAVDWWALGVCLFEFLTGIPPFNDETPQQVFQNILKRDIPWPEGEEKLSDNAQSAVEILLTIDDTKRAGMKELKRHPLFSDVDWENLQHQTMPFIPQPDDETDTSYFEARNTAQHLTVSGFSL
Method: as §1

MLK3 = MLK3 (Homo sapiens, UniProt Q16584); settings: 100 nM, 2 hours; Lys2
Method: as §1

TLK1 = molecular target: T3, TLK1 (Homo sapiens, UniProt Q9UKI8); settings: MOLM-13; 100 nM, 2 hours; Lys2; read-out: Inhibition vs DMSO
T3 sequence (Q9UKI8 1-766): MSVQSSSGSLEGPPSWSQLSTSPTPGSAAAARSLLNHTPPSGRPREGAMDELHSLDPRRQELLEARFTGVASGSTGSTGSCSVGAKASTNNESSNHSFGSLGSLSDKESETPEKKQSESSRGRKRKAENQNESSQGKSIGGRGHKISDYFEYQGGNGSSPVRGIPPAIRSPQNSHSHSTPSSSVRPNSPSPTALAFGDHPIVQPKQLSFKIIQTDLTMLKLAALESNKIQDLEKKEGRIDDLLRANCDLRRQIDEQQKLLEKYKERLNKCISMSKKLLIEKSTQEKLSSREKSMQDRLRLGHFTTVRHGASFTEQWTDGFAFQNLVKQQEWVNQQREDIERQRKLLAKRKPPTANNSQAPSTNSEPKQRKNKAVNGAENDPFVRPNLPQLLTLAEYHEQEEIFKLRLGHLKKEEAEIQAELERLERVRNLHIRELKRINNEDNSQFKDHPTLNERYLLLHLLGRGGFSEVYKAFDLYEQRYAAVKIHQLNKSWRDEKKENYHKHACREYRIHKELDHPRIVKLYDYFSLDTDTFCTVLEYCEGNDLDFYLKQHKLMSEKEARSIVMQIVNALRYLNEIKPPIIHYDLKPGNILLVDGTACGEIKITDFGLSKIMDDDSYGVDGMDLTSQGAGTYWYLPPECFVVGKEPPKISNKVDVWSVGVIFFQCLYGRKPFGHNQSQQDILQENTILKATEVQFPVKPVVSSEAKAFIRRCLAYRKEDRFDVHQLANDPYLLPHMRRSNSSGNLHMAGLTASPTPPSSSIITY
Method: as §1

CaMK1a = CaMK1a (Homo sapiens, UniProt Q14012); settings: MOLM-13; 100 nM, 2 hours; Lys1; read-out: Inhibition vs DMSO
Method: as §1

ACK = ACK (Homo sapiens, UniProt Q07912); settings: MOLM-13; 100 nM, 2 hours; Lys1; read-out: Inhibition vs DMSO
Method: as §1

PIK3CD = PIK3CD (Homo sapiens, UniProt O00329); settings: MOLM-13; 100 nM, 2 hours; ATP; read-out: Inhibition vs DMSO
Method: as §1

Sequence of PIK3CD (O00329 whole entry): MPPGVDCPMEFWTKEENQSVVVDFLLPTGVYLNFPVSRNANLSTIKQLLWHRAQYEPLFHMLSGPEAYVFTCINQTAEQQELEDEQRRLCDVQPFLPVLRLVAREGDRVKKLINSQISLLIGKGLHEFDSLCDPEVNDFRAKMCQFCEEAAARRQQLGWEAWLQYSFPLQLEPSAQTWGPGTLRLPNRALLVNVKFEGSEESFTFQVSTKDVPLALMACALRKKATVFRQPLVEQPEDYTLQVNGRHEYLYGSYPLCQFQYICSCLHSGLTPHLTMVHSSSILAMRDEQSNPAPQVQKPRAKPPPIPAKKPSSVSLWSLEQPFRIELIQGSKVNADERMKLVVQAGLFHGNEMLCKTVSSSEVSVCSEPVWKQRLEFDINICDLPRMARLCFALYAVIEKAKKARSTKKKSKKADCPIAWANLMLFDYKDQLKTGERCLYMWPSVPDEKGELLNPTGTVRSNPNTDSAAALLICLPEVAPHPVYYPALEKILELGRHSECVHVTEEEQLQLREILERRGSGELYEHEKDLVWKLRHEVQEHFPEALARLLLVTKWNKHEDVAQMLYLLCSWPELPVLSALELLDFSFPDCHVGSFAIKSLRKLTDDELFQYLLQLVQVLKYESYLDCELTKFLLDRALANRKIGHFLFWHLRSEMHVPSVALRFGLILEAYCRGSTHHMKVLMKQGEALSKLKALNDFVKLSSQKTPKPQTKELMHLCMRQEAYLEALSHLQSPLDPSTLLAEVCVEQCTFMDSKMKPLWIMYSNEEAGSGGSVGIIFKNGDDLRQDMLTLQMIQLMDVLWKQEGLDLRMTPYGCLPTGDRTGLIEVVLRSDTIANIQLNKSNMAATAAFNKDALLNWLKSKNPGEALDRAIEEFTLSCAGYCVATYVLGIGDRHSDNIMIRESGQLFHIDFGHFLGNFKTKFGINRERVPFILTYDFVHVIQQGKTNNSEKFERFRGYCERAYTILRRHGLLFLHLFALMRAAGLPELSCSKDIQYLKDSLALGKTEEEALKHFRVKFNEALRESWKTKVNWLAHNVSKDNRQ
Sequence of PIK3CD (P27986 whole entry partner): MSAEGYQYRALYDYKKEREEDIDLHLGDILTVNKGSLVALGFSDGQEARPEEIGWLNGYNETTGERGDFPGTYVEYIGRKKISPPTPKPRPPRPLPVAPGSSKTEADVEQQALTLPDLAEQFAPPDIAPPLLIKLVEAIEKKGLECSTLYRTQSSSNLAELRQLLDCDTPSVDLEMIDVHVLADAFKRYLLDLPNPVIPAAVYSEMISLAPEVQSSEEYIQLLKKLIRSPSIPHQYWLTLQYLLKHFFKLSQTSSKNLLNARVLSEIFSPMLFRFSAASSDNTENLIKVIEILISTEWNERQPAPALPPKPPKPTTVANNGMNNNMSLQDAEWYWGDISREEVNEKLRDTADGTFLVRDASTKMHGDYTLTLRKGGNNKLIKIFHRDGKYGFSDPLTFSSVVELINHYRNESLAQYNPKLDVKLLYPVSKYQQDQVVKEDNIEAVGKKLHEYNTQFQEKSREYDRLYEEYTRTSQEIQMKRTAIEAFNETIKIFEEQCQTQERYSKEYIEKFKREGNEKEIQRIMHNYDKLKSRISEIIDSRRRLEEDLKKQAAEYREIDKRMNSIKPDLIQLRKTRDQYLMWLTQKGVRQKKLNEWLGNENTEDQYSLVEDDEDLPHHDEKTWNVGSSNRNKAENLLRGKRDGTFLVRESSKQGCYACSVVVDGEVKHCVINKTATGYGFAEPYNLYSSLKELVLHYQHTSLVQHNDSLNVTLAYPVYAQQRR
Sequence of MAP3K5 (Q99683 whole entry): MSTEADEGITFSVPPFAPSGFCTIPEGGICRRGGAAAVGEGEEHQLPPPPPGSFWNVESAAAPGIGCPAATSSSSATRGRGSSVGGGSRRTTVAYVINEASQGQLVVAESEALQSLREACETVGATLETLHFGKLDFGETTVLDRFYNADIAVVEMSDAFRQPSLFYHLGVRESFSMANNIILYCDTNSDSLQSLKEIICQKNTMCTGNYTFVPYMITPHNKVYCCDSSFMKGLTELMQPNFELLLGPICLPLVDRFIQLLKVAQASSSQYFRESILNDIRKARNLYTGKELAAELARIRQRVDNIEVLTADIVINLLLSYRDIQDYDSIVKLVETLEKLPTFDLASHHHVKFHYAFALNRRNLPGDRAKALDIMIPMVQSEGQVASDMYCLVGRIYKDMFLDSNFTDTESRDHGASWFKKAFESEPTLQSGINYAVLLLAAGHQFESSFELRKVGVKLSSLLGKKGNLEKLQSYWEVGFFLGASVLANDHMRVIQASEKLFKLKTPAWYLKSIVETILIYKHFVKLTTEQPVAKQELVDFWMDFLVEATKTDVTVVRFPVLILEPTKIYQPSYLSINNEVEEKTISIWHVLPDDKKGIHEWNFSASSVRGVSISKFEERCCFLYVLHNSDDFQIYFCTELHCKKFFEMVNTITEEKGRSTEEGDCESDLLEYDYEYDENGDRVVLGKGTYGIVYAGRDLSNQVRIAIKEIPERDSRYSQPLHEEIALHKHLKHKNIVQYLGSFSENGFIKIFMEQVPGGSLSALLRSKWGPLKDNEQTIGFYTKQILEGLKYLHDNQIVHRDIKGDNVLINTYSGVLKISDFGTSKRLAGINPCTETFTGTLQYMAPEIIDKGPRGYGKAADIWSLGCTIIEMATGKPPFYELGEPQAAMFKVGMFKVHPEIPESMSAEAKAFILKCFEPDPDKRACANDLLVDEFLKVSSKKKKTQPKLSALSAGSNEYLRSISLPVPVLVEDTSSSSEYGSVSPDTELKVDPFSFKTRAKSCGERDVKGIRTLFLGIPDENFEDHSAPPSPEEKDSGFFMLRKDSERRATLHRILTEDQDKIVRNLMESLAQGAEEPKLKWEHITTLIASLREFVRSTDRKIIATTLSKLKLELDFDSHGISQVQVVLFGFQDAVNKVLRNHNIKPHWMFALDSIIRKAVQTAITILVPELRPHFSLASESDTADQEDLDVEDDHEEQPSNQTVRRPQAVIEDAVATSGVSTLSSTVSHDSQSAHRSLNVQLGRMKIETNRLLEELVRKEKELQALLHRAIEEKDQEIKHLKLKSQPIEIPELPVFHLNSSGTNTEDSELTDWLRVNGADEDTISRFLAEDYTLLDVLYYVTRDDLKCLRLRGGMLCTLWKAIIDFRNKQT
Sequence of GSK3A (P49840 whole entry): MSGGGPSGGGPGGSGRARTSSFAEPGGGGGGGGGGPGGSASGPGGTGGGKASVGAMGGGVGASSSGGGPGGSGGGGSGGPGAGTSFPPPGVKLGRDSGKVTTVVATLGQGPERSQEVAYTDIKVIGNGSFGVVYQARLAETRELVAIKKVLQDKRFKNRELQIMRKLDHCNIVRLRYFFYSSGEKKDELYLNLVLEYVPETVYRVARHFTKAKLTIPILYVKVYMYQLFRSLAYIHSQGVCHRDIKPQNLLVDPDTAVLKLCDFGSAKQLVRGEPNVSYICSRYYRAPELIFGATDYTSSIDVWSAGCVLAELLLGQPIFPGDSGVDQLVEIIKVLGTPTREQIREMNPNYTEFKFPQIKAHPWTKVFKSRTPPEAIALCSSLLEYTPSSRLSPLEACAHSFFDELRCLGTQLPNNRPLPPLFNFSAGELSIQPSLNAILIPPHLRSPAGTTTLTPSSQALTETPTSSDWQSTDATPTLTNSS
Sequence of PRPK (Q96S44 whole entry): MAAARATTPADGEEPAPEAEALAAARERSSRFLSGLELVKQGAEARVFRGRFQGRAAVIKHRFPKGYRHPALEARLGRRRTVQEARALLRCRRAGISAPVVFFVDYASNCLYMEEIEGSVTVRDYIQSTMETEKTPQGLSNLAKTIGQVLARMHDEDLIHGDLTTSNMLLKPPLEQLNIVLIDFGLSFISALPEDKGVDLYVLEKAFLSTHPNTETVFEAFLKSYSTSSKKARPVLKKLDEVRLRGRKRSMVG
Sequence of MST3 (Q9Y6E0 whole entry): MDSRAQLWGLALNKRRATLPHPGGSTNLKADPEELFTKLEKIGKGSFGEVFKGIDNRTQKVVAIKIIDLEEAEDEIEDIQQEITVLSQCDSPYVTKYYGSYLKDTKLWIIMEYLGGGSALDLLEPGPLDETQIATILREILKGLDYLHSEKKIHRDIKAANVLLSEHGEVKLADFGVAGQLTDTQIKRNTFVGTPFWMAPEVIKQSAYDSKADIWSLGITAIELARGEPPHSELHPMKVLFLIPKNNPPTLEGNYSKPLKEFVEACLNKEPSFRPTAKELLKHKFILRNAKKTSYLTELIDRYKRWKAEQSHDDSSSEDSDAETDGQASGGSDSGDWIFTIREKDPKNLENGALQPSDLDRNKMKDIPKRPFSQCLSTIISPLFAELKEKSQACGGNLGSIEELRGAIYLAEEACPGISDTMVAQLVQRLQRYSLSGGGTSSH
Sequence of CaMK1a (Q14012 whole entry): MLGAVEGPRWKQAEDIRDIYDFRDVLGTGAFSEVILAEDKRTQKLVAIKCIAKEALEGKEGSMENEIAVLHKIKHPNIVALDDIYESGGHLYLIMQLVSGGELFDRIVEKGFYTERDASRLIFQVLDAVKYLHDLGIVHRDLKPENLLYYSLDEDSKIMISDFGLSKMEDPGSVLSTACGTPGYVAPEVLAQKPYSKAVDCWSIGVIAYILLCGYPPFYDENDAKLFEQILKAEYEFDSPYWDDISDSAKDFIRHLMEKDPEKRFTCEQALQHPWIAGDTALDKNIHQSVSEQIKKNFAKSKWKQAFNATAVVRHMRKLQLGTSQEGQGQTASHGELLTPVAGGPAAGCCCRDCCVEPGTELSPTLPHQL

CN1CCN(Cc2ccc(Nc3ncc(Cl)c(Nc4ccccc4S(=O)(=O)N(C)C)n3)cc2)CC1 [TP-0903]
inhibition at 0.1 µM (MAP3K5): 0.5%
inhibition at 0.1 µM (NEK4): -23.8%
Inhibition vs DMSO (MST3): 55.3%
inhibition at 0.1 µM (PRPK): 29.4%
inhibition at 0.1 µM (AurA; Lys1, read-out: Inhibition vs DMSO): 58.2%
inhibition at 0.1 µM (AurA; Lys2, read-out: Inhibition vs DMSO): 59.4%
inhibition at 0.1 µM (GSK3A): -8.9%
inhibition at 0.1 µM (PKN1): -25.2%
Inhibition vs DMSO (MASTL; ATP Loop): 10.4%
Inhibition vs DMSO (MASTL; Lys1): -9.8%
Inhibition vs DMSO (MLK3): 20.5%
inhibition at 0.1 µM (TLK1): 16%
inhibition at 0.1 µM (CaMK1a): 1.3%
inhibition at 0.1 µM (ACK): 44.5%
inhibition at 0.1 µM (PIK3CD): -4.6%
